Here are results for one compound from PMC5474678 (Journal of medicinal chemistry, 2015).

The structures appear in SMILES notation. Bounds are passed on as bounds.

One assay deals with BRD4 BD1 (Homo sapiens, UniProt O60885). Briefly: Competitive fluorescence polarization. On the technique in general: Polarisation of emitted light reports the rotation of a fluorescent probe.
A further assay addresses BRD3 BD2 (Homo sapiens, UniProt Q15059). Description: Competitive fluorescence polarization.
The target of another assay is BRD2 BD1 (Homo sapiens, UniProt P25440). Description: Competitive fluorescence polarization.
Chain of BRD2 BD1 (P25440 72-205): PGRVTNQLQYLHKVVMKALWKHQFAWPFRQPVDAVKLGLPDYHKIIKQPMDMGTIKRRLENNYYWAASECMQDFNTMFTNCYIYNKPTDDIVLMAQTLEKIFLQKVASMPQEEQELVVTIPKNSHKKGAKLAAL
Another assay relates to MOLM-13 cells. Briefly: Cell viability assay. It counts as cell-based. The settings on record: Homo sapiens, MOLM-13, 96 h, read-out: IC50 cell growth inhibition MOLM-13.
In a further assay the test system is K562 cells. Briefly: Cell viability assay. It is filed as cell-based. The settings on record: Homo sapiens, K562, 96 h, read-out: IC50 cell growth inhibition K562.
The next assay addresses BRD3 BD1 (Homo sapiens, UniProt Q15059). Description: Competitive fluorescence polarization.
The subject of the next assay is MV4;11 cells. Description: Cell viability assay. It counts as cell-based. The settings on record: Homo sapiens, MV4-11, 96 h, read-out: IC50 cell growth inhibition MV4.
The next assay has as its target BRD4 BD2 (Homo sapiens, UniProt O60885). Description: Competitive fluorescence polarization.

Chain of BRD3 BD1 (Q15059 24-144): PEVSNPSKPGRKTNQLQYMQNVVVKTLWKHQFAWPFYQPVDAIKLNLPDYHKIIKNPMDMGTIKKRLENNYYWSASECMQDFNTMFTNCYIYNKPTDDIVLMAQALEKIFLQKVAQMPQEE
Chain of BRD3 BD2 (Q15059 306-417): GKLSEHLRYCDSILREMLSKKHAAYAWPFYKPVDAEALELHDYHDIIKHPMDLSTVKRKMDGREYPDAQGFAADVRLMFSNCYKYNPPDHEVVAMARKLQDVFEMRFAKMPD

Usually IC50 stands for the concentration that inhibits the measured activity by half. Usually Ki stands for a measure of affinity in units of concentration, obtained from inhibition or displacement. A high value points to a looser hold on the target. Take `COc1cc2c(cc1-c1c(C)noc1C)[nH]c1ccnc(-c3c(-c4ccccc4)n[nH]c3C)c12` [Compound 19, 4-(8-Methoxy-1-(5-methyl-3-phenyl-1H-pyrazol-4-yl)-5H-pyrido[4,3-b]indol-7-yl)-3,5-dimethyl-isoxazole]: the IC50 on BRD4 BD1 was 80.6 ± 1 nM; in the assay with MOLM-13 cells, 144 ± 31 nM; in the assay on K562 cells, greater than 2000 nM; in the assay with MV4;11 cells, 34 ± 15 nM; at BRD4 BD2 it was 129 ± 45 nM. For the same compound, the Ki at BRD4 BD1 worked out at 26.9 ± 1 nM; on BRD3 BD2, 9.4 ± 1 nM; at BRD2 BD1, 12.2 ± 1.7 nM; on BRD3 BD1 it was 10.4 ± 1 nM; at BRD4 BD2 it was 38 ± 2.2 nM.
